Test results: patent publication EP0504254B1, “THE USE OF GIBBERELLINS FOR THE MANUFACTURE OF A MEDICAMENT FOR THE TREATMENT OF PROSTATITIS” (ODEN, Per, priority 1989, dated 1991)

What was measured:
castrated rats = conditions: C.R. Séances Soc. Biol. Filiales 163 (1969); cited from earlier work
[1] = tested on: male adult uncastrated rats; test: Dihydrotestosterone-induced hypertrophic growth of the prostatic gland in rats; type: in vivo; conditions: daily 50 mg dihydrotestosterone alone for three months
Procedure: The weight of the prostate was 814 mg, which was equivalent to about 0.34 % of the total body weight. When the rats were simultaneously given a daily dosis of 100 µg of gibberellins GA₂₀ and GA₃₀, an increase in prostate weight was not detected. The weight of the prostate was in this case 582 mg, which was equivalent to 0.20 % of the total body weight.

Compound: C=C1C[C@]23C[C@@]1(O)CC[C@H]2[C@@]12C=C[C@H](O)[C@@](C)(C(=O)O1)[C@H]2[C@@H]3C(=O)O [gibberellic acid]
- prostate weight (castrated rats): restitution of prostate weight

Compound: C[C@]12CCC(=O)C[C@@H]1CC[C@@H]1[C@@H]2CC[C@]2(C)[C@@H](O)CC[C@@H]12 [dihydrotestosterone]
- weight of the prostate [1]: 814 mg
- weight of the prostate, equivalent % of the total body weight [1]: about 0.34%
